The source of these data is US10369119B2 (priority 2015, dated 2019).

Series [1] deals with Diphtheria toxin-mediated cytotoxicity in C32 cells.
In series [2] the test system is cholera toxin-mediated cytotoxicity in RAW264.7 cells.
For series [3], the system named is Pseudomonas aeruginosa exotoxin A (PE)-mediated cytotoxicity in RAW264.7 cells.
Series [4] concerns the target T1, caspase-1 (Homo sapiens, UniProt P29466).
T1 construct: purchased BioVision
It counts as biochemical.

In series [5] the test system is cholera toxin-mediated cytotoxicity in RAW264.7 cells. In words: cells. To be noted: Mus musculus, RAW264.7, read-out: EC50 for reduction of cholera toxin-mediated cytotoxicity.
Series [6] has as its target T2, caspase-6 (Homo sapiens, UniProt P55212).
T2 construct: purchased BioVision
In kind it is biochemical.

The test system of series [7] is Diphtheria toxin-mediated cytotoxicity in C32 cells. In words: cells. To be noted: Homo sapiens, C32, read-out: EC50 for reduction of diphtheria toxin-mediated cytotoxicity.
Series [8] has as its target T3, caspase-3 (Homo sapiens, UniProt P42574).
T3 construct: purchased BioVision
It counts as biochemical.

Series [9] has as its target T4, caspase-1 (Mus musculus, UniProt P29452).
T4 construct: Cathepsin B and caspase-1 activities in total cell lysates were determined; endogenous in cells; host or cells: RAW264.7
It counts as cell-based.

Another series deals with T5, furin (Mus musculus, UniProt P23188).
T5 construct: endogenous in cells; host or cells: RAW264.7
In kind it is cell-based.

A further series has as its target T6, caspase-9 (Homo sapiens, UniProt P55211).
T6 construct: purchased BioVision
In kind it is biochemical.

The next series deals with T7, caspase-7 (Homo sapiens, UniProt P55210).
T7 construct: purchased BioVision
It counts as biochemical.

Series [10] deals with Senegal ZIKV. In words: Zika virus high content imaging infection assay, Senegal strain DAK AR D 41525 in Vero E6 cells. It counts as cell-based. Conditions: Vero C1008, 2 hours pretreatment, MOI 0.5, 48 hours, read-out: EC50 for inhibition of abundance of Senegal ZIKV in Vero E6 cells.
For series [11], the system named is LF-PA-mediated cell killing in RAW264.7 cells. It counts as cell-based, mouse.
Series [12] has as its target T8, caspase-3 (Mus musculus, UniProt P70677).
T8 construct: Caspases were induced in RAW264.7 by treating cells with 2 μg/ml of PE for 4 hours; endogenous in cells; host or cells: RAW264.7 (lysate after PE treatment)
In words: biochemical. In kind it is biochemical.

The next series has as its system Puerto Rico ZIKV. The experiment in a line: Zika virus high content imaging infection assay, Puerto Rico strain PRVABC59 in Vero E6 cells. Conditions: Vero C1008, 2 hours pretreatment, MOI 0.5, 48 hours, read-out: EC50 for inhibition of abundance of Puerto Rico ZIKV in Vero E6 cells. It counts as cell-based.
In a further series the test system is other caspases. It counts as biochemical, human.
For series [13], the target named is T9, caspase-6 (Mus musculus, UniProt O08738).
T9 construct: Caspases were induced in RAW264.7 by treating cells with 2 μg/ml of PE for 4 hours; endogenous in cells; host or cells: RAW264.7 (lysate after PE treatment)
In words: biochemical. It counts as biochemical.

Series [14] concerns PE-sensitive HapMap cells (human B-lymphocytes). It counts as cell-based.
Another series concerns the target BoNT/A light chain (Clostridium botulinum, UniProt P0DPI0). In kind it is biochemical.
The test system of series [15] is Senegal ZIKV. The experiment in a line: Zika virus high content imaging infection assay, Senegal strain DAK AR D 41525 in human astrocytes. Conditions: Astrocyte, 2 hours pretreatment, MOI 15, 48 hours, read-out: EC50 for inhibition of abundance of Senegal ZIKV in human astrocytes. It counts as cell-based.
Series [16] has as its system botulinum neurotoxin serotype A complex (BoNT/A). More on the design: species or system Swiss Webster (CFW) mice. To be noted: mouse, in vivo.
A further series relates to caspase-3/7. In kind it is biochemical, mouse.
In another series the target is anthrax LF toxin (Bacillus anthracis, UniProt P15917). In kind it is cell-based.
A further series deals with T10, cathepsin-B (Mus musculus, UniProt P10605).
T10 construct: Cathepsin B and caspase-1 activities in total cell lysates were determined; endogenous in cells; host or cells: RAW264.7
It counts as cell-based.

Series [17] deals with Pseudomonas aeruginosa exotoxin A (PE)-mediated cytotoxicity in RAW264.7 cells. The experiment in a line: cells. To be noted: Mus musculus, RAW264.7, read-out: EC50 for reduction of Pseudomonas toxin-mediated cytotoxicity.

“Also recorded” adds a separate entry of the source.

Chain of anthrax LF toxin (P15917 34-809 limits assumed): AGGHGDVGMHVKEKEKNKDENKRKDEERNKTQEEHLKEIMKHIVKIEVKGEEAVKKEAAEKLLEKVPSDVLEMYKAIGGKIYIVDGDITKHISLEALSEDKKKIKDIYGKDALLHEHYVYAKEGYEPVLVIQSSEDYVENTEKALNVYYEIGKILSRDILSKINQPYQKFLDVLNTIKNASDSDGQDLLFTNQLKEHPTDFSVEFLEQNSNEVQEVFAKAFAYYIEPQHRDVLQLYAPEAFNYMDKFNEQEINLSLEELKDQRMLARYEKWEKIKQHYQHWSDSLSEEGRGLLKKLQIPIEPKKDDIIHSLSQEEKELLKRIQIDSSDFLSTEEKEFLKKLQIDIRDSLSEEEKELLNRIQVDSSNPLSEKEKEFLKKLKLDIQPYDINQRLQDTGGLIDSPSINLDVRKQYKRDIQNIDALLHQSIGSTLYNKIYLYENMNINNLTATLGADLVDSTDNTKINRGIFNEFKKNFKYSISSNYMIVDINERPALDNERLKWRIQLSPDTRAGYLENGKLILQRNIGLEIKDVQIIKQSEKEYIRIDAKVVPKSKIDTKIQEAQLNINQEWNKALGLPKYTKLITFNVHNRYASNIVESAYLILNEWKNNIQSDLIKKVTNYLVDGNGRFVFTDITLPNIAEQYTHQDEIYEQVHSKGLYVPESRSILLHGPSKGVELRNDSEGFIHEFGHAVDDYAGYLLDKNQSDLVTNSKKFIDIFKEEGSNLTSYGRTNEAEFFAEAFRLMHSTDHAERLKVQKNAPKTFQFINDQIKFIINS
T8 sequence (P70677 29-175 limits assumed): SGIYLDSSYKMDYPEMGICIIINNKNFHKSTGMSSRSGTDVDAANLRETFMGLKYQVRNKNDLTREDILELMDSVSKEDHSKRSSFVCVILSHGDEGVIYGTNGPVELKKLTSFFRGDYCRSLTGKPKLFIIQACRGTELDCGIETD
T8 sequence (P70677 176-277 limits assumed): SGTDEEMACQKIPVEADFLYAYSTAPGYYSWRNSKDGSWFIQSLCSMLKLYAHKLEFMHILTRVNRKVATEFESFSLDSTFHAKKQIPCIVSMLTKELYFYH
T9 sequence (O08738 6-162 limits assumed): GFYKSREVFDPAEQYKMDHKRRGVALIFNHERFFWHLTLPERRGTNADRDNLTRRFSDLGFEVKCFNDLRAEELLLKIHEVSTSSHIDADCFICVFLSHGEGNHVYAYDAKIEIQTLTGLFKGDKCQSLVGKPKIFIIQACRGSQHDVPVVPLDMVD
T9 sequence (O08738 176-276 limits assumed): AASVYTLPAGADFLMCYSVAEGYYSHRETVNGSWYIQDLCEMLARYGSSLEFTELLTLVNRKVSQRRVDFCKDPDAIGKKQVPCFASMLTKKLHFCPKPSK
T6 sequence (P55211 1-315 limits assumed): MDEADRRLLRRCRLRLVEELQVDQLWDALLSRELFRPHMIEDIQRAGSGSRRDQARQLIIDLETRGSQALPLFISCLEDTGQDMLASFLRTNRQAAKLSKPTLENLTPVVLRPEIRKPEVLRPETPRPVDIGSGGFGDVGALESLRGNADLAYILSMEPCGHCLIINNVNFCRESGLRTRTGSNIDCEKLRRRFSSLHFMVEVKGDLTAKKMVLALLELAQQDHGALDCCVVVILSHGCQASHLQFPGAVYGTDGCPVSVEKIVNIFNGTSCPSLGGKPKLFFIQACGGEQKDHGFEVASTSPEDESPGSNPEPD
T6 sequence (P55211 331-416 limits assumed): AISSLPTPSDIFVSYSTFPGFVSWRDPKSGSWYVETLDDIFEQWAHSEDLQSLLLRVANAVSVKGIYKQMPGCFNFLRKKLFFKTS
T2 sequence (P55212 24-179 limits assumed): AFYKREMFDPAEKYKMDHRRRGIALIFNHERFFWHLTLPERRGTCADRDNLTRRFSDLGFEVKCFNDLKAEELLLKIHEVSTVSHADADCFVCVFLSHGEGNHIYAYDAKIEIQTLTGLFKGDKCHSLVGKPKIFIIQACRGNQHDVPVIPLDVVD
T2 sequence (P55212 194-293 limits assumed): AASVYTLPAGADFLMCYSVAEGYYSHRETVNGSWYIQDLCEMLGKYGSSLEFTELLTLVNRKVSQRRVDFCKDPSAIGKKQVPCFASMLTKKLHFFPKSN
T7 sequence (P55210 24-198 limits assumed): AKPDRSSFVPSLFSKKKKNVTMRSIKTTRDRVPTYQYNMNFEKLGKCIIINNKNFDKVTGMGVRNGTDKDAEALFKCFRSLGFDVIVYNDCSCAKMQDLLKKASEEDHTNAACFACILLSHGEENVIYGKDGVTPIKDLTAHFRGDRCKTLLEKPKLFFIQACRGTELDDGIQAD
T7 sequence (P55210 207-303 limits assumed): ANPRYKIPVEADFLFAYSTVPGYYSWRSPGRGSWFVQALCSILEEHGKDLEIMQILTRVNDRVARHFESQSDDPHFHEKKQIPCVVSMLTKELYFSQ
Chain of BoNT/A light chain (P0DPI0 2-448 limits assumed): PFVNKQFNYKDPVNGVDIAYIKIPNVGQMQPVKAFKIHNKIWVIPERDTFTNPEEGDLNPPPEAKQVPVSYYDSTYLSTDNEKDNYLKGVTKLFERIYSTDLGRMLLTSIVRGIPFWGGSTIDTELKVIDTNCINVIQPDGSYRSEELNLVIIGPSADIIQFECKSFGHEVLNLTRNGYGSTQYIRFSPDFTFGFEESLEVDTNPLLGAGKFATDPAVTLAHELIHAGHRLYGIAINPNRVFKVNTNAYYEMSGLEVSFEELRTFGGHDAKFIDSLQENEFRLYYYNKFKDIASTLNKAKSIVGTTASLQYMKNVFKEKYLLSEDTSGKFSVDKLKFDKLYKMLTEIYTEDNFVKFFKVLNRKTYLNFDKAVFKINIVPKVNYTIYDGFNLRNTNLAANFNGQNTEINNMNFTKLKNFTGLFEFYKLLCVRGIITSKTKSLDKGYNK
T10 sequence (P10605 80-333): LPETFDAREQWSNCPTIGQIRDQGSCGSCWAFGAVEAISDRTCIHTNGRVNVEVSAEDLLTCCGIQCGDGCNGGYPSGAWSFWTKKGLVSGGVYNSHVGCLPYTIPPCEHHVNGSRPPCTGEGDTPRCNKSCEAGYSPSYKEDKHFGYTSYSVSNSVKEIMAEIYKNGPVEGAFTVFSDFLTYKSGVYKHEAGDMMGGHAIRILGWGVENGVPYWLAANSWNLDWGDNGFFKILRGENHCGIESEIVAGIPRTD
T1 sequence (P29466 120-297 limits assumed): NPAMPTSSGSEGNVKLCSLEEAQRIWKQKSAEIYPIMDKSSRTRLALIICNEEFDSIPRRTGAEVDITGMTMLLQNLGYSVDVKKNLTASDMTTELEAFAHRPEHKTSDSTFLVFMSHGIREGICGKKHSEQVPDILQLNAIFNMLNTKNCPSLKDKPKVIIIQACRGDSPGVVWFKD
T1 sequence (P29466 317-404 limits assumed): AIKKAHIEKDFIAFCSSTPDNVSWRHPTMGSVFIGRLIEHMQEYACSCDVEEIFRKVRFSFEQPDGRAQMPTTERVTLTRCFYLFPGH
T3 sequence (P42574 29-175 limits assumed): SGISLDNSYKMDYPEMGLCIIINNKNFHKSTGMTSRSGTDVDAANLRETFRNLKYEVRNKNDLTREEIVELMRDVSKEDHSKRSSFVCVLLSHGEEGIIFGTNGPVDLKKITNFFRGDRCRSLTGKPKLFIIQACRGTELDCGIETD
T3 sequence (P42574 176-277 limits assumed): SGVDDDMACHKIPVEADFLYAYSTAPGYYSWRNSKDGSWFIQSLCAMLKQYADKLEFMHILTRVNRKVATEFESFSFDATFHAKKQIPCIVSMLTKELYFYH
T4 sequence (P29452 119-296 limits assumed): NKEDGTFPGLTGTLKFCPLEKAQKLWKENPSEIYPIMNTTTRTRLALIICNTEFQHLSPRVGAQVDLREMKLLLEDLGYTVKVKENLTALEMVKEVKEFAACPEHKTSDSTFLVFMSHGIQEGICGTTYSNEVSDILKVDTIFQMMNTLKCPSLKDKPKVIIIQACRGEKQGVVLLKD
T4 sequence (P29452 315-402 limits assumed): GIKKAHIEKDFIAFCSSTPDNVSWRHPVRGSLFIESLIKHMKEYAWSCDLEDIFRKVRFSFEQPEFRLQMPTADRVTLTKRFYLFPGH
T5 sequence (P23188 108-793): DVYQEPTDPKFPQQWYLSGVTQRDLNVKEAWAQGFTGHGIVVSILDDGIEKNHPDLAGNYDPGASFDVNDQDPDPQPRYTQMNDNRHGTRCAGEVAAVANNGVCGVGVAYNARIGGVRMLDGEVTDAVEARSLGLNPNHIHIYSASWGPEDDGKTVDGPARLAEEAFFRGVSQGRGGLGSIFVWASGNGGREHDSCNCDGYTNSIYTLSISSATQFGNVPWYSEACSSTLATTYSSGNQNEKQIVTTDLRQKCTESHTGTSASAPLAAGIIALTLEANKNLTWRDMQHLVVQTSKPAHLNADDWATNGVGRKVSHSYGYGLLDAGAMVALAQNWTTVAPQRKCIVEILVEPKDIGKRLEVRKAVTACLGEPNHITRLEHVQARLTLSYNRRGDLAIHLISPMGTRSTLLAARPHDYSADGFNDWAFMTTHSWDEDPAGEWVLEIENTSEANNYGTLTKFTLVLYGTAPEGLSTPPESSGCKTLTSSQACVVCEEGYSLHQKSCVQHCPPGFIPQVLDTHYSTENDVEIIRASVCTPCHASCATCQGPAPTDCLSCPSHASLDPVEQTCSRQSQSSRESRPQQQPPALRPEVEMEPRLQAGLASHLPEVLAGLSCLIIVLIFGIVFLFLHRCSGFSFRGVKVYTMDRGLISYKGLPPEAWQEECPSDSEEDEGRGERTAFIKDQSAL

As for `Oc1cccc(O)c1O` [Pyrogallol], the “CCL cellular screen hit: reduction of diphtheria toxin cytotoxicity” value in series [1] was “capable of reducing the cytotoxicities of all three toxins”. For the same compound, the “CCL cellular screen hit: reduction of cholera toxin cytotoxicity” value in [2] is recorded as “capable of reducing the cytotoxicities of all three toxins”. For the same compound, the “CCL cellular screen hit: reduction of PE cytotoxicity” value in [3] is reported as “capable of reducing the cytotoxicities of all three toxins”.
As a reminder, the EC50 is the concentration that produces a half-maximal response. In the case of `Oc1c(Cl)cc(Cl)cc1Sc1cc(Cl)cc(Cl)c1O` [Bithionol], on caspase-1 [4], the “Inhibition of purified recombinant human caspase-1 activity” value was “inhibited activities”. Moreover, the EC50 in [5] was found to be 10 µM; in series [7] it was 10 µM; in the series on Senegal ZIKV [10] it was 5.5 µM; in the series with Puerto Rico ZIKV, 6.7 µM; in the series with Senegal ZIKV [15], 6.3 µM; in series [17], 10 µM. Moreover, the “Inhibition of purified recombinant human caspase-6 activity” value at caspase-6 [6] is on record as “inhibited activities”. At caspase-3 [8], the “Inhibition of purified recombinant human caspase-3 activity” value was “inhibited activities”. Also, the “Caspase-1 induction upon LF-PA treatment” value on caspase-1 [9] is on record as “caspase-1 induction was not detected”. Besides, the “Inhibition of proteolytic activity of cellular furin” value on furin is reported as “does not inhibit”. The “Inhibition of purified recombinant human caspase-9 activity” value at caspase-9 was “inhibited activities”. Besides, the “Inhibition of purified recombinant human caspase-7 activity” value on caspase-7 is “inhibited activities”. Moreover, the “Protection against LF-PA-mediated cell killing” value in [11] is on record as “substantial protection”. The IC50 against caspase-3 [12] was determined as 21 µM; against caspase-6 [13], 13 µM; on caspase-3/7 (read-out: IC50 for inhibition of proteolytic cleavage of caspase-3/7 substrate), 11 µM. In addition, at caspase-3 [12] (33 μM), the “CCL FRET screen hit: reduction of proteolysis of caspase-3 substrate” value is reported as “capable of prominently reducing the proteolysis of all three caspase substrates”. In addition, in the series with other caspases, the “Inhibition of other purified recombinant human caspases” value is “no inhibitory effects”. Besides, the “CCL FRET screen hit: reduction of proteolysis of caspase-6 substrate” value at caspase-6 [13] (33 μM) is listed as “capable of prominently reducing the proteolysis of all three caspase substrates”. In addition, in series [14], the “Reduction of cellular sensitivity to PE in PE-sensitive HapMap cells” value is given as “protected three cell lines”. Also, the “Effect on proteolysis rate of fluorescent SNAP-25 substrate by BoNT/A” value on BoNT/A light chain is “did not affect the proteolysis rate”. Further, the “Survival of mice challenged with lethal oral dose of BoNT/A complex” value in [16] is “all of the mice”. Moreover, the “Toxin-associated symptoms (wasp waist, paralysis) in BoNT/A challenged mice” value in [16] is reported as “without displaying toxin-associated symptoms”. Further, the “CCL FRET screen hit: reduction of proteolysis of caspase-3/7 substrate” value with caspase-3/7 (33 μM) is reported as “capable of prominently reducing the proteolysis of all three caspase substrates”. Also, the “Inhibition of proteolytic activity of cellular LF (MAPKK2 proteolysis)” value on anthrax LF toxin is on record as “does not block proteolysis; also recorded: does not inhibit”. Besides, the “Inhibition of proteolytic activity of cellular cathepsin-B” value at cathepsin-B is given as “does not inhibit”.
